Where two headings read alike, the source gives them in different places.
Columns and labels:
[1] = biological target: BAF3 Cells with Variant 3 EML4-ALK^G1202R (Homo sapiens, UniProt Q9UM73, G1202R, cells depend on it); details: read-out: BAF3 Cells with Variant 3 EML4-ALK^G1202R (IC50)
Experimental: (§1) The 3-day viability assay was performed by seeding the cells at 750 cells per 50 μL volume of complete medium per well. Following the seeding of the cells, the plate was briefly spun down to let the cells settle at the bottom of the plate before treating with compounds at a dose range using d300e. Once the cells were treated, the cells were incubated at 37° C. with 5% CO2 for 72 hours. At the end of the treatment duration, the plate was brought to root temperature to equilibrate before adding 12.5 μL of the CellTiter-Glo® reagent per well. The plate was shaken using a plate shaken at 50 rpm for 5 minutes at room temperature and then incubated for 5 minutes in the dark before the plates were read using a luminescence based plate reader.
(§2) IC50 values were determined using a non-linear regression curve fit in GraphPad Prism (Version 9.1.0).

[2] = biological target: BAF3 Cells with Variant 3 EML4-ALK^WT (Homo sapiens, UniProt Q9UM73); details: read-out: BAF3 Cells with Variant 3 EML4-ALK^WT (IC50); 72 hours, CellTiter-Glo
Experimental: as §1, §2

Mouse oral PK study = format: in vivo, male C57BI/6 mice; details: for Vd: C57BI/6, mouse, iv, 2 mg/kg
Experimental: Standard oral PK studies were conducted using male C57BI/6 mice obtained from BioDuro Shanghai. […] Plasma concentrations of compound 1 reported at each of the 9 time points (5 min, 15 min, 30 min, 1 h, 2 h, 4 h, 6 h, 8 h and 24 h post dosing) are the average values from 3 test animals.

FER in HCT116 cells = biological target: T1, FER in HCT116 cells (Homo sapiens, UniProt P16591); assay: Western blotting for FER degradation; format: cell-based; details: various concentrations, 24 hours
T1 construct: endogenous in cells; host or cells: HCT116
Experimental: HCT116 cells were treated with compound 1 or a FER kinase inhibitor E260 (Elkis et al., Nat. Commun. 8:940 (2017)) at various concentrations for 24 hours, along with DMSO (not shown) and ethanol as controls (FIG. 2). 18 μg of protein was loaded in each lane and Western blotting was performed for FER, CRBN, and loading control ACTIN.

proteins in MOLT4 cells = assay: Quantitative mass spectrometry proteomics, relative protein abundance; format: cell-based; details: 1 μM, 5 hours, cut-offs 2-fold change, p value 0.001
Experimental: Relative fold-change (FC) abundance of proteins in MOLT4 cells treated with compound 1 (1 μM) for 5 hours was determined using quantitative mass spectrometry proteomics (protocol was published previously: Donovan et al., Cell 183:1714-1731 (2020)). Dotted lines signify a 2-fold change in protein levels and a p value of 0.001. […] FER is a cytoplasmic tyrosine kinase and its kinase function […] for STAT3 phosphorylation in tumor cell transformation and growth, but siRNA knock down of FER leads to decreased phospho-STAT3 and reduced STAT3 activation and inhibition of tumor growth in vivo (Lennartsson et al., J. Biol. Chem. 288:15736-15744 (2013)). STAT3 activation plays a key role in several cancers, including colon cancer (Gargalionis et al., Biomedicines 9:1016 (2021)). Therefore, inhibition of STAT3 signaling through depletion of FER using a targeted protein degrader is useful in the treatment of such cancers.

[3] = biological target: HiBiT G1202R Variant 1 EML4-ALK (Homo sapiens, UniProt Q9UM73, G1202R); format: cell-based; details: Ba/F3 cells, 0.0003-2 μM, 4 hours; for DC50: read-out: BAF3 Cellular Degradation - HiBiT G1202R Variant 1 EML4-ALK: DC50; for Dmax: BaF3, maximal level of degradation, read-out: BAF3 Cellular Degradation - HiBiT G1202R Variant 1 EML4-ALK: Dmax
[4] = male, C57BI/6, 10 mg/kg, PO, single dose, plasma
[5] = male, C57BI/6, IV, single 2 mg/kg, plasma

HiBiT G1202R Variant 1 EML4-ALK, sequence (Q9UM73 with tags, fused parts or gaps G1202R): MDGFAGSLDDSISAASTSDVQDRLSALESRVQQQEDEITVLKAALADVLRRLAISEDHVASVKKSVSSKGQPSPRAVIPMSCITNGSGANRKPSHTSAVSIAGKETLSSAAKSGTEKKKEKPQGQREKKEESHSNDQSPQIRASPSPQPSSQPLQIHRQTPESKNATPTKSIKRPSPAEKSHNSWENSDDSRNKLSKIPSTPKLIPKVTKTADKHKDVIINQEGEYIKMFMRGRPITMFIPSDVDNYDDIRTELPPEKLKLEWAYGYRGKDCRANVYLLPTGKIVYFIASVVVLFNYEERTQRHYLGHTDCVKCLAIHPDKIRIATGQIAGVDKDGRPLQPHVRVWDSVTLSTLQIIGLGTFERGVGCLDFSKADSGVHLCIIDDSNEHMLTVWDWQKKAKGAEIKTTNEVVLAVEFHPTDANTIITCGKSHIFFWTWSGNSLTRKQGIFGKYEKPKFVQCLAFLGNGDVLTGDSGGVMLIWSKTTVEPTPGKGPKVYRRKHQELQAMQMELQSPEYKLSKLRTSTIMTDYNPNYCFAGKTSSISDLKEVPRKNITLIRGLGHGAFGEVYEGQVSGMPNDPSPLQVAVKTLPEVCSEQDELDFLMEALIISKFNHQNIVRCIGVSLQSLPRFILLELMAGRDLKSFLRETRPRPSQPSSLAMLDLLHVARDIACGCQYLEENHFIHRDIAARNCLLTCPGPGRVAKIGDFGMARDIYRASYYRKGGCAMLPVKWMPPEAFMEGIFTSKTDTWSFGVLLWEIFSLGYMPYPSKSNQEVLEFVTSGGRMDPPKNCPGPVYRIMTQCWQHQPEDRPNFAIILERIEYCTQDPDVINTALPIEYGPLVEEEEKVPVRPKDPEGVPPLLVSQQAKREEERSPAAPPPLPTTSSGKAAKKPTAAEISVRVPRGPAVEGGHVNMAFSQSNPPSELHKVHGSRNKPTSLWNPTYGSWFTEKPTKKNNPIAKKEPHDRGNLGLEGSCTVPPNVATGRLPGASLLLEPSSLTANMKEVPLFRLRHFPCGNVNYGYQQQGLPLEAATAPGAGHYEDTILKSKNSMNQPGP
HiBiT G1202R Variant 1 EML4-ALK, sequence (Q96SW2 whole entry partner): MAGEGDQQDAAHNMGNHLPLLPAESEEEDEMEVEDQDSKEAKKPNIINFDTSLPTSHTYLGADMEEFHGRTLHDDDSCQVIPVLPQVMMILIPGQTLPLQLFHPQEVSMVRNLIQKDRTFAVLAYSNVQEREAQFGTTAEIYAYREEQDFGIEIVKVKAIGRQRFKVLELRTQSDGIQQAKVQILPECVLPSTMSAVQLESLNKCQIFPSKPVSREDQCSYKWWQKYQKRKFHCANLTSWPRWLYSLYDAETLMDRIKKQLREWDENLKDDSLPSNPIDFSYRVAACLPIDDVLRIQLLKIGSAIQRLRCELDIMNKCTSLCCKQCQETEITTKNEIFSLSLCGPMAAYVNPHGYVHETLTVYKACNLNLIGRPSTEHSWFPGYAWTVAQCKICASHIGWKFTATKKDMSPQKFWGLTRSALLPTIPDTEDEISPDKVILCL
HiBiT G1202R Variant 1 EML4-ALK, sequence (Q3U1J4 whole entry partner): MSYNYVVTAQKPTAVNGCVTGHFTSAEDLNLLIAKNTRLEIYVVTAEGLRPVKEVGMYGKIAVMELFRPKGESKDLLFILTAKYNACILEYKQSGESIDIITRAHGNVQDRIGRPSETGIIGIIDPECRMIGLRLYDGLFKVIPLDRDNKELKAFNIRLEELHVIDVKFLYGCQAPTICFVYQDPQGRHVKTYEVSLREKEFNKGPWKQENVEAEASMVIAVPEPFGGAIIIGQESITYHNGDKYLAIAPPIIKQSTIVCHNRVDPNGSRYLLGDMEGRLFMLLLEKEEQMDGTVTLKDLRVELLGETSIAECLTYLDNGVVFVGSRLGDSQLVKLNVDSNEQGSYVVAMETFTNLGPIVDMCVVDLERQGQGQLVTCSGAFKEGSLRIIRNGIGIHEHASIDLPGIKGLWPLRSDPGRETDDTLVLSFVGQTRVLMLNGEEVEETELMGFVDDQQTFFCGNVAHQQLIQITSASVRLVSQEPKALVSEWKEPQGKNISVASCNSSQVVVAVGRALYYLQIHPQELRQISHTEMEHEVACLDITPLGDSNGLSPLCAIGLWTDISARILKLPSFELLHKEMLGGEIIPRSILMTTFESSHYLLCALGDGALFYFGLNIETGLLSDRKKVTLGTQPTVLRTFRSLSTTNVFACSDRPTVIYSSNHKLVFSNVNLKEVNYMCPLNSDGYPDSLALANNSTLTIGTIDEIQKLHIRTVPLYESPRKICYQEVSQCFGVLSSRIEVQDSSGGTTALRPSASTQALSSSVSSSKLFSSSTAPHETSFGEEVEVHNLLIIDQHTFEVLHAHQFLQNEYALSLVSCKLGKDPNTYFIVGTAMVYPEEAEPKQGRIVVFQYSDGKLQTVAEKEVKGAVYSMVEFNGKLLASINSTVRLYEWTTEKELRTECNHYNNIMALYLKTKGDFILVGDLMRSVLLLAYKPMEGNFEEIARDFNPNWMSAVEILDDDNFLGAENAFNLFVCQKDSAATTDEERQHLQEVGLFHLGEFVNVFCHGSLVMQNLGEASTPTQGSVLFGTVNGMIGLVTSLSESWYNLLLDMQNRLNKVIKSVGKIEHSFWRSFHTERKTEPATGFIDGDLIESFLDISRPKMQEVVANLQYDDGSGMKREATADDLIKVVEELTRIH
BAF3 Cells with Variant 3 EML4-ALK^G1202R, sequence (Q9UM73 whole entry G1202R): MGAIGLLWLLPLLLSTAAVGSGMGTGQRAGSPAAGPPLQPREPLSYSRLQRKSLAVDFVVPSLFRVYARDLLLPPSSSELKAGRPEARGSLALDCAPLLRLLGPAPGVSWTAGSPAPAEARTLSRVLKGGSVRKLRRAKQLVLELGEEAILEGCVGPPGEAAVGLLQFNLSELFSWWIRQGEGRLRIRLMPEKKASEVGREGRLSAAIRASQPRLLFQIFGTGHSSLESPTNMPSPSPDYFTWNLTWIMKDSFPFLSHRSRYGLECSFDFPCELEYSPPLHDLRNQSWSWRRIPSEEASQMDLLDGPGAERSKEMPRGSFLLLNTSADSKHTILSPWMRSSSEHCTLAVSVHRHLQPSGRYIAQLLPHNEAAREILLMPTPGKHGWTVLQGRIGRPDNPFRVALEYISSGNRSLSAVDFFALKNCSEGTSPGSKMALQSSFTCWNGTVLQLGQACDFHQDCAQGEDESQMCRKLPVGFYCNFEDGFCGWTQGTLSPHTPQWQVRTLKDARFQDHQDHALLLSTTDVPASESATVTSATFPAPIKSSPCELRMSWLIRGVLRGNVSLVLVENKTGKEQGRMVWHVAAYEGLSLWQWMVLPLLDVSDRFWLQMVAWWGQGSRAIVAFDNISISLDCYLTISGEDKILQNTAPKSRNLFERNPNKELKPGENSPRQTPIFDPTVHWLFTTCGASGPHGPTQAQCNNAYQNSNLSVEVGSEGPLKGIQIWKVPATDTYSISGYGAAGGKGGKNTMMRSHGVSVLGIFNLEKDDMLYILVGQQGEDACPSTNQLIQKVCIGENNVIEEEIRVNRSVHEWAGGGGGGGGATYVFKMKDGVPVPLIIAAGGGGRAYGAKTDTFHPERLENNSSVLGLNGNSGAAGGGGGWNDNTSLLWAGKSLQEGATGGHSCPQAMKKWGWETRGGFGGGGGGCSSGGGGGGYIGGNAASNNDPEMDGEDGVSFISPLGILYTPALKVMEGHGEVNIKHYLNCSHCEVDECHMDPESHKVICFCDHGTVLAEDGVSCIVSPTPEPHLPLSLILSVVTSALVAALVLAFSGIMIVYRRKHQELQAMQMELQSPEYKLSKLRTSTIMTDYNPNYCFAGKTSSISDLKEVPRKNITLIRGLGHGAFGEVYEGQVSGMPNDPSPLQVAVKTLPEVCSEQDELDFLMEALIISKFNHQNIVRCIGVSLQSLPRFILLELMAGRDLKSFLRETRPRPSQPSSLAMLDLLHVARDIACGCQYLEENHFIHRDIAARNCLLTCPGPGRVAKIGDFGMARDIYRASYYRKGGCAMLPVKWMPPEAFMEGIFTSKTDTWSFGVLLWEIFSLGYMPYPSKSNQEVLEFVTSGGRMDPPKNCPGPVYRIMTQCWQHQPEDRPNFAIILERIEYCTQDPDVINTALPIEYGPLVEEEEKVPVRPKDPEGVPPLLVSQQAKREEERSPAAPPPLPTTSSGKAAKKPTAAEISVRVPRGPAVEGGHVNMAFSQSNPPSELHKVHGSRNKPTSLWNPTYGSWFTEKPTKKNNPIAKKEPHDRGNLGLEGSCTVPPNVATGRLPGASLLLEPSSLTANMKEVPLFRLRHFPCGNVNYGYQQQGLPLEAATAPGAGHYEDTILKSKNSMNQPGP
T1 sequence (P16591 whole entry): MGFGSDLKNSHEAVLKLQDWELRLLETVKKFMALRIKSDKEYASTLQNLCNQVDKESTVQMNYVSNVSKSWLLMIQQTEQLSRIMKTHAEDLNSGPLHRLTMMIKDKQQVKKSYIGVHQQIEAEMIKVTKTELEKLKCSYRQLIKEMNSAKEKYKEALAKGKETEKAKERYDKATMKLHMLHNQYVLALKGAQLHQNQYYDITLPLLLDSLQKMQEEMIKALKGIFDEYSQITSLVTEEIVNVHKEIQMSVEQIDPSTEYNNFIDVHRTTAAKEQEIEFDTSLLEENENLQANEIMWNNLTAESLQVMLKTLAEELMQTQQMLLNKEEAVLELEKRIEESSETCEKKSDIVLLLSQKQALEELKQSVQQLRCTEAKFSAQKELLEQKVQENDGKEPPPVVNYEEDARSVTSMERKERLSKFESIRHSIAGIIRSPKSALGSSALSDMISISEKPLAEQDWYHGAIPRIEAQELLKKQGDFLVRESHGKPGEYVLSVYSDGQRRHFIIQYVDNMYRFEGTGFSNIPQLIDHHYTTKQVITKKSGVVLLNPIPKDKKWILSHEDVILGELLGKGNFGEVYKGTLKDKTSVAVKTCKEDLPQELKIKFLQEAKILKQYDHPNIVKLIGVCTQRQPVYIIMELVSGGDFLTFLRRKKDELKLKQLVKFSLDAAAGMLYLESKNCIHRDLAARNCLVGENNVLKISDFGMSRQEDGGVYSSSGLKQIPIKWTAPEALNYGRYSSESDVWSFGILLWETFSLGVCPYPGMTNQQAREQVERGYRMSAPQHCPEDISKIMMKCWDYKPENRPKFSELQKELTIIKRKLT
BAF3 Cells with Variant 3 EML4-ALK^WT, sequence (Q9UM73 whole entry, change not shown): as the sequence (Q9UM73 whole entry G1202R) above, with R1202G counted along it

COc1cc(N2CCC(N3CCN(C)CC3)CC2)ccc1Nc1ncc(Cl)c(Nc2ccccc2P(C)(C)=O)n1 [Brigatinib]
GI50 ([1]; baf3 cells with variant 3 eml4-alk^g1202r): 183 nM

Cc1cc(Nc2ncc(Cl)c(Nc3ccccc3S(=O)(=O)C(C)C)n2)c(OC(C)C)cc1C1CCNCC1 [Ceritinib]
GI50 [2]: 85 nM
GI50 ([1]; 72 hours, CellTiter-Glo): 357 nM

COc1cc(C2CCN(CC3CN(c4ccc5c(c4)C(=O)N(C4CCC(=O)NC4=O)C5=O)C3)CC2)c(C)cc1Nc1ncc(Cl)c(Nc2ccccc2S(=O)(=O)C(C)C)n1 (stereo not drawn) [Compound 1, 5-{3-[(4-{4-[(5-chloro-4-{[2-(propane-2-sulfonyl)phenyl]amino}pyrimidin-2-yl)amino]-5-methoxy-2-methylphenyl}piperidin-1-yl)methyl]azetidin-1-yl}-2-(2,6-dioxopiperidin-3-yl)-2,3-dihydro-1H-isoindole-1,3-dione]
AUCExtr (Mouse oral PK study; IV, single 2 mg/kg, plasma): 1.65%
F (Mouse oral PK study; PO versus IV): 28.0%
AUCExtr (Mouse oral PK study; PO, single dose, plasma): 5.08%
AUCInf/D (Mouse oral PK study; PO, single dose, plasma): 0.605 hr*kg*nM/nmol
In vivo metabolic stability, plasma exposure and clearance (in words) (Mouse oral PK study; conclusion from Table 3): good in vivo metabolic stability, plasma exposure, and slow clearance rate
AUC(0-inf) (Mouse oral PK study; [4]): 7.08 µM·h
AUC(0-t) (Mouse oral PK study; [4]): 6.73 µM·h
Cmax (Mouse oral PK study; [4]): 658 nM
MRT inf (Mouse oral PK study; [4]): 8.51 h
Tmax (Mouse oral PK study; [4]): 1.67 h
half-life (Mouse oral PK study; [4]): 5.37 h
AUC(0-inf) (Mouse oral PK study; [5]): 5.05 µM·h
AUC(0-t) (Mouse oral PK study; [5]): 4.97 µM·h
C0 (Mouse oral PK study; [5]): 2340 nM
MRT inf (Mouse oral PK study; [5]): 4.95 h
clearance (Mouse oral PK study; [5]): 7.73 mL/min/kg
half-life (Mouse oral PK study; [5]): 4.41 h
Vd (Mouse oral PK study; male, plasma, IV, single 2 mg/kg, plasma, read-out: Vss): 2.29 L/kg
Vd (Mouse oral PK study; male, plasma, IV, single 2 mg/kg, plasma, read-out: Vz): 2.95 L/kg
Downregulation of FER (Western blot) (FER in HCT116 cells): significantly downregulated FER
Relative fold-change abundance of proteins (downregulated proteins) (proteins in MOLT4 cells): downregulated PLK4, CAMK1D, FAK2, RSK1, ACK1 and FER

COc1cc(C2CCN(CCC3CN(c4ccc5c(c4)C(=O)N(C4CCC(=O)NC4=O)C5=O)C3)CC2)c(C)cc1Nc1ncc(Cl)c(Nc2ccccc2S(=O)(=O)C(C)C)n1 (stereo not drawn) [Compound 2]
DC50 [3]: 10 nM
Dmax [3]: 76%

COc1cc(C2CCN(C[C@H]3CCN(c4ccc5c(c4)C(=O)N(C4CCC(=O)NC4=O)C5=O)C3)CC2)c(C)cc1Nc1ncc(Cl)c(Nc2ccccc2S(=O)(=O)C(C)C)n1 (stereo partly drawn) [Compound 8, 5-[(3R)-3-[(4-{4-[(5-chloro-4-{[2-(propane-2-sulfonyl)phenyl]amino}pyrimidin-2-yl)amino]-5-methoxy-2-methylphenyl}piperidin-1-yl)methyl]pyrrolidin-1-yl]-2-(2,6-dioxopiperidin-3-yl)-2,3-dihydro-1H-isoindole-1,3-dione]
DC50 [3]: 124 nM

COc1cc(C2CCN(C[C@@H]3CCN(c4ccc5c(c4)C(=O)N(C4CCC(=O)NC4=O)C5=O)C3)CC2)c(C)cc1Nc1ncc(Cl)c(Nc2ccccc2S(=O)(=O)C(C)C)n1 (stereo partly drawn) [Compound 9]
DC50 [3]: 41 nM
Dmax [3]: 86%

COc1cc(C2CCN(CC3CC4(C3)CN(c3ccc5c(c3)C(=O)N(C3CCC(=O)NC3=O)C5=O)C4)CC2)c(C)cc1Nc1ncc(Cl)c(Nc2ccccc2S(=O)(=O)C(C)C)n1 (stereo not drawn) [Compound 16, 5-(6-((4-(4-((5-chloro-4-((2-(isopropylsulfonyl)phenyl)amino)pyrimidin-2-yl)amino)-5-methoxy-2-methylphenyl)piperidin-1-yl)methyl)-2-azaspiro[3.3]heptan-2-yl)-2-(2,6-dioxopiperidin-3-yl)isoindoline-1,3-dione]
DC50 [3]: 79 nM

CNC(=O)c1ccccc1Nc1nc(Nc2cc(C)c(C3CCN(CC4CCN(c5ccc6c(c5)C(=O)N(C5CCC(=O)NC5=O)C6=O)CC4)CC3)cc2OC)ncc1C(F)(F)F (stereo not drawn) [Compound 17, 2-{[2-({4-[1-({1-[2-(2,6-dioxopiperidin-3-yl)-1,3-dioxo-2,3-dihydro-1H-isoindol-5-yl]piperidin-4-yl}methyl)piperidin-4-yl]-2-methoxy-5-methylphenyl}amino)-5-(trifluoromethyl)pyrimidin-4-yl]amino}-N-methylbenzamide]
DC50 [3]: 23 nM
Dmax [3]: 77%

CNC(=O)c1ccccc1Nc1nc(Nc2cc(C)c(C3CCN(CC4CN(c5ccc6c(c5)C(=O)N(C5CCC(=O)NC5=O)C6=O)C4)CC3)cc2OC(C)C)ncc1C(F)(F)F (stereo not drawn) [Compound 18, 2-{[2-({4-[1-({1-[2-(2,6-dioxopiperidin-3-yl)-1,3-dioxo-2,3-dihydro-1H-isoindol-5-yl]azetidin-3-yl}methyl)piperidin-4-yl]-5-methyl-2-(propan-2-yloxy)phenyl}amino)-5-(trifluoromethyl)pyrimidin-4-yl]amino}-N-methylbenzamide]
DC50 [3]: 71 nM
Dmax [3]: 68%

CNC(=O)c1ccccc1Nc1nc(Nc2cc(C)c(C3CCN(CC4CCN(c5ccc6c(c5)C(=O)N(C5CCC(=O)NC5=O)C6=O)CC4)CC3)cc2OC(C)C)ncc1C(F)(F)F (stereo not drawn) [Compound 19, 2-{[2-({4-[1-({1-[2-(2,6-dioxopiperidin-3-yl)-1,3-dioxo-2,3-dihydro-1H-isoindol-5-yl]piperidin-4-yl}methyl)piperidin-4-yl]-5-methyl-2-(propan-2-yloxy)phenyl}amino)-5-(trifluoromethyl)pyrimidin-4-yl]amino}-N-methylbenzamide]
DC50 [3]: 114 nM
Dmax [3]: 55%

CCc1cc2c(cc1C#CCCCN1CCC(c3ccc4c(c3)CN(C3CCC(=O)NC3=O)C4=O)CC1)C(C)(C)c1[nH]c3cc(C#N)ccc3c1C2=O (stereo not drawn) [Compound 22]
DC50 [3]: 6 nM
Dmax [3]: 82%

CCc1cc2c(cc1N1CC(CN3CCC(c4ccc5c(c4)CN(C4CCC(=O)NC4=O)C5=O)CC3)C1)C(C)(C)c1[nH]c3cc(C#N)ccc3c1C2=O (stereo not drawn) [Compound 23]
DC50 [3]: 95 nM
Dmax [3]: 63%

COc1cc(CN2CCC(O)(c3ccc4c(c3)CN(C3CCC(=O)NC3=O)C4=O)CC2)c(C)cc1Nc1ncc(Cl)c(Nc2ccccc2S(=O)(=O)C(C)C)n1 (stereo not drawn) [Compound 26, 3-(5-(1-(4-((5-chloro-4-((2-(isopropylsulfonyl)phenyl)amino)pyrimidin-2-yl)amino)-5-methoxy-2-methylbenzyl)-4-hydroxypiperidin-4-yl)-1-oxoisoindolin-2-yl)piperidine-2,6-dione]
DC50 [3]: 147 nM
Dmax [3]: 62%

— patent US20240336643A1, “BIFUNCTIONAL COMPOUNDS THAT DEGRADE ALK AND USES THEREOF” (DANA-FARBER CANCER INSTITUTE, INC., priority 2021, published 2024)
